# Experimental data as given in patent publication US9018206B2, “Carboxamide compounds and their use as calpain inhibitors” (AbbVie Deutschland GmbH & Co. KG, priority 2009, dated 2015).
# Tests used:
# Assay type in all cases: biochemical
# [1] = target: T1, cathepsin B isolated from human liver (Homo sapiens, UniProt P07858); assay: Cathepsin B enzyme inhibition in vitro (kinetic fluorescence assay); details: Ki(cathepsin B)/Ki(calpain) ratio
# T1 construct: cathepsin B—isolated from human liver; purchased Calbiochem 219362; host or cells: human liver (tissue-derived)
# Description: (§1) Testing for blockade of the corresponding enzymic activities was carried out by means of kinetic fluorescence assays (excitation 390 nm, emission 460 nm).
# (§2) Apparent Ki values were calculated from the experimentally determined IC50 values by the Cheng-Prussoff relation assuming a reversible competitive enzyme inhibition. The Km values of the substrates used under the assay conditions indicated above were: 90 μM (Z-Phe-Arg-AMC, cathepsin B), 10 μM (Z-Gly-Pro-Arg-AMC, cathepsin K), 2 μM (Z-Phe-Arg-AMC, cathepsin L), and 30 μM (Z-Val-Val-Arg-AMC, cathepsin S).
# (§3) The indicated Ki values are averages of the inhibition constants calculated on the basis of 2 to 4 independent dose-effect plots.
# (§4) • 20 nM calpain-I—isolated from human erythrocytes (Calbiochem #208713), 100 μM Suc-Leu-Tyr-AMC (Bachem #I-1355) as substrate in buffer with 62 mM imidazole, 0.3 mM CaCl2, 0.10% CHAPS, 0.05% BSA, 1 mM DTT at pH 7.3 and room temperature. 1. Cathepsin B: • 0.25 nM cathepsin B—isolated from human liver (Calbiochem #219362), 100 μM Z-Phe-Arg-AMC (Bachem #I-1160) as substrate 50 mM MES, 2 mM EDTA, 0.05% Brij 35, 2.5 mM L-cysteine, pH 6.0, room temperature. 3. Cathepsin K: • 3 nM cathepsin K activated from recombinant human procathepsin K from E. coli (Calbiochem #342001), 10 μM Z-Gly-Pro-Arg-AMC (Biomol #P-142) as substrate in 50 mM MES, 2 mM EDTA, 0.05% Brij 35, 2.5 mM L-cysteine, pH 6.0, room temperature. 4. Cathepsin L: • 1 nM cathepsin L—isolated from human liver (Calbiochem #219402), 2 μM Z-Phe-Arg-AMC (Bachem #I-1160) as substrate in 50 mM MES, 2 mM EDTA, 0.05% Brij 35, 2.5 mM L-cysteine, pH 6.0, room temperature. 5. Cathepsin S: • 0.5 nM recombinant human cathepsin S from E. coli (Calbiochem #219343), 20 μM Z-Val-Val-Arg-AMC (Bachem #I-1540) as substrate in 50 mM MES, 2 mM EDTA, 0.05% Brij 35, 2.5 mM L-cysteine, pH 6.0, room temperature.
# [2] = target: T2, calpain-I isolated from human erythrocytes (Homo sapiens, UniProt P07384); assay: Calpain I enzyme inhibition in vitro (kinetic fluorescence assay); details: apparent Ki from IC50 (Cheng-Prussoff); 20 nM calpain-I, 100 μM Suc-Leu-Tyr-AMC, pH 7.3, room temperature
# T2 construct: calpain-I—isolated from human erythrocytes; purchased Calbiochem 208713; host or cells: human erythrocytes (tissue-derived)
# T2 sequence (P07384 1-714): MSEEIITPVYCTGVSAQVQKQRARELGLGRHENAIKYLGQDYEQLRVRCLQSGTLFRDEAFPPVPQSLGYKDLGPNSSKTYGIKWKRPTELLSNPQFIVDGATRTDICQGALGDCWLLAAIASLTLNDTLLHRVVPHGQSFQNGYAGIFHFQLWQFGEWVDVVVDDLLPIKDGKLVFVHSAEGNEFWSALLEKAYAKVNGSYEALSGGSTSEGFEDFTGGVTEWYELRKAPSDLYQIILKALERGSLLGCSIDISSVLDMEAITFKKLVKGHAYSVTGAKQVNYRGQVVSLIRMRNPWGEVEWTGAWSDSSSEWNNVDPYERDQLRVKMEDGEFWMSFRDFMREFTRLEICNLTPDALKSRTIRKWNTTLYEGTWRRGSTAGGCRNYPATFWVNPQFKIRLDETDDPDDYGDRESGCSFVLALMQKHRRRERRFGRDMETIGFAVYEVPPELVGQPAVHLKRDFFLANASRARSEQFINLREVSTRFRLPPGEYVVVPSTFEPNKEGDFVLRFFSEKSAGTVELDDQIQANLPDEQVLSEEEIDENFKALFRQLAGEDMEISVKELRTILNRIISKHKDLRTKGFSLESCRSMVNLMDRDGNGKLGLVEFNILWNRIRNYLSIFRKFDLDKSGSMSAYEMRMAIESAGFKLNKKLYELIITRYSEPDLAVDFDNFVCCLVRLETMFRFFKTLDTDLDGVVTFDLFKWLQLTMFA
# T2 sequence (P04632 1-268 partner): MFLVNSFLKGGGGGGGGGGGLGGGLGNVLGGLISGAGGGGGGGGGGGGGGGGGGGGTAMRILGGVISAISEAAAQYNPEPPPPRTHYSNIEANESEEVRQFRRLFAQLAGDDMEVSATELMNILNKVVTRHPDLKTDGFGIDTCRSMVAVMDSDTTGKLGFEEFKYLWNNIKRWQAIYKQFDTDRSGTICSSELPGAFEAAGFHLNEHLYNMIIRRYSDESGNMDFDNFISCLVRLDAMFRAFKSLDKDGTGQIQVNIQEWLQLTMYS
# Description: as §1, §2, §3, §4
# [3] = target: T3, cathepsin K activated from recombinant human procathepsin K (Homo sapiens, UniProt P43235); assay: Cathepsin K enzyme inhibition in vitro (kinetic fluorescence assay); details: Ki(cathepsin K)/Ki(calpain) ratio
# T3 construct: purchased Calbiochem 342001; host or cells: E. coli
# T3 sequence (P43235 115-329): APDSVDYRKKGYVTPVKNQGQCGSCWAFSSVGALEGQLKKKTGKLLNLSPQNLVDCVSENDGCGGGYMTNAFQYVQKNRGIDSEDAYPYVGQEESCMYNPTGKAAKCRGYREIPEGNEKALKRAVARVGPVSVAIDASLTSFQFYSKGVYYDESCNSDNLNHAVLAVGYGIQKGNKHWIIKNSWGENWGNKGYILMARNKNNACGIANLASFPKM
# Description: as §1, §2, §3, §4
# [4] = target: T4, cathepsin L isolated from human liver (Homo sapiens, UniProt P07711); assay: Cathepsin L enzyme inhibition in vitro (kinetic fluorescence assay); details: Ki(cathepsin L)/Ki(calpain) ratio
# T4 construct: cathepsin L—isolated from human liver; purchased Calbiochem 219402; host or cells: human liver (tissue-derived)
# T4 sequence (P07711 114-333): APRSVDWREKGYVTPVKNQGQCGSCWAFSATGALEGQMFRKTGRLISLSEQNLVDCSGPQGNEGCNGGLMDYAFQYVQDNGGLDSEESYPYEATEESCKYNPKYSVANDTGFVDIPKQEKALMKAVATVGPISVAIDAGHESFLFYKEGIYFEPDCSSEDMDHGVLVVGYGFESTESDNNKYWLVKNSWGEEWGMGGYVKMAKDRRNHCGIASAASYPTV
# Description: as §1, §2, §3, §4
# [5] = target: T5, recombinant human cathepsin S (Homo sapiens, UniProt P25774); assay: Cathepsin S enzyme inhibition in vitro (kinetic fluorescence assay); details: Ki(cathepsin S)/Ki(calpain) ratio
# T5 construct: purchased Calbiochem 219343; host or cells: E. coli
# T5 sequence (P25774 115-331): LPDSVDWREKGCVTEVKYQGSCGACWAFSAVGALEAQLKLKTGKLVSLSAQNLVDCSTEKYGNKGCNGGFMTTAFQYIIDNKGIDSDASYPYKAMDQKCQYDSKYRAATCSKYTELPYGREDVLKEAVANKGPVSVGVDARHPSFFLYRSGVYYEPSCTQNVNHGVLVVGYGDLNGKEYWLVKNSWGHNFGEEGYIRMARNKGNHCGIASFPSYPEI
# Description: as §1, §2, §3, §4
SMILES,Sel cat. B [1],Ki [2],Sel cat. L [4],Sel cat. S [5],Sel cat. K [3]
"CCCNC(=O)C(=O)C(Cc1ccccc1)NC(=O)[C@H]1CCC(=O)N1Cc1ccccc1 (mixture of isomers) [Example 26, (2R)-1-Benzyl-N-(3,4-dioxo-1-phenyl-4-(propylamino)butan-2-yl)-5-oxopyrrolidine-2-carboxamide]",+++ (Ki(cathepsin B)/Ki(calpain) ratio of >30),100 to 600 nM,++ (10<Ki(cathepsin B)/Ki(calpain)≦30),,+++ (Ki(cathepsin K)/Ki(calpain) ratio of >30)
"O=C(NC1CC1)C(=O)C(Cc1ccccc1)NC(=O)[C@H]1CCC(=O)N1Cc1c(F)cccc1F (mixture of isomers) [Example 48, (2R)—N-(4-(Cyclopropylamino)-3,4-dioxo-1-phenylbutan-2-yl)-1-(2,6-difluorobenzyl)-5-oxopyrrolidine-2-carboxamide]",+++ (Ki(cathepsin B)/Ki(calpain) ratio of >30),100 to 600 nM,++ (10<Ki(cathepsin B)/Ki(calpain)≦30),,
"CCNC(=O)C(=O)C(Cc1ccccc1)NC(=O)[C@H]1CCC(=O)N1Cc1c(F)cccc1F (mixture of isomers) [Example 49, (2R)-1-(2,6-Difluorobenzyl)-N-(4-(ethylamino)-3,4-dioxo-1-phenylbutan-2-yl)-5-oxopyrrolidine-2-carboxamide]",+++ (Ki(cathepsin B)/Ki(calpain) ratio of >30),100 to 600 nM,++ (10<Ki(cathepsin B)/Ki(calpain)≦30),,
"O=C(NNC(=O)c1ccccc1)C(=O)C(Cc1ccccc1)NC(=O)[C@H]1CCC(=O)N1Cc1ccccc1 (mixture of isomers) [Example 57, (2R)—N-(4-(2-Benzoylhydrazinyl)-3,4-dioxo-1-phenylbutan-2-yl)-1-benzyl-5-oxopyrrolidine-2-carboxamide]",+ (5<Ki(cathepsin B)/Ki(calpain)≦10),50 to 100 nM,,+++ (Ki(cathepsin S)/Ki(calpain) ratio of >100),++ (10<Ki(cathepsin B)/Ki(calpain)≦30)
"NC(=O)C(=O)C(Cc1ccccc1)NC(=O)[C@@H]1CCC(=O)N1Cc1ccccc1 (stereo partly drawn) [Example 2, (2S)—N-(4-Amino-3,4-dioxo-1-phenylbutan-2-yl)-1-benzyl-5-oxopyrrolidine-2-carboxamide]",,100 to 600 nM,+ (5<Ki(cathepsin L)/Ki(calpain)≦10),,++ (10<Ki(cathepsin B)/Ki(calpain)≦30)
"NC(=O)C(=O)C(Cc1ccccc1)NC(=O)[C@H]1CCC(=O)N1Cc1ccccc1OC(F)(F)F (stereo partly drawn) [Example 9, (2R)—N-(4-Amino-3,4-dioxo-1-phenylbutan-2-yl)-5-oxo-1-[2-(trifluoromethoxy)-benzyl]pyrrolidine-2-carboxamide]",,50 to 100 nM,+++ (Ki(cathepsin L)/Ki(calpain) ratio of >30),+++ (Ki(cathepsin S)/Ki(calpain) ratio of >100),+++ (Ki(cathepsin K)/Ki(calpain) ratio of >30)
"NC(=O)C(=O)C(Cc1ccccc1)NC(=O)C1CCS(=O)(=O)N1Cc1ccccc1 (centres unmarked) [Example 10, N-(4-Amino-3,4-dioxo-1-phenylbutan-2-yl)-2-benzylisothiazolidine-3-carboxamide 1,1-dioxide]",+++ (Ki(cathepsin B)/Ki(calpain) ratio of >30),< 50 nM,++ (10<Ki(cathepsin B)/Ki(calpain)≦30),,
"NC(=O)C(=O)C(Cc1ccccc1)NC(=O)[C@H]1CCC(=O)N1Cc1cccc(OC(F)(F)F)c1 (stereo partly drawn) [Example 13, (2R)—N-(4-Amino-3,4-dioxo-1-phenylbutan-2-yl)-5-oxo-1-[3-(trifluoromethoxy)-benzyl]pyrrolidine-2-carboxamide]",+ (5<Ki(cathepsin B)/Ki(calpain)≦10),100 to 600 nM,,++ (30<Ki(cathepsin B)/Ki(calpain)≦100),+++ (Ki(cathepsin K)/Ki(calpain) ratio of >30)
"NC(=O)C(=O)C(Cc1ccccc1)NC(=O)[C@H]1CCCC(=O)N1Cc1ccccc1 (stereo partly drawn) [Example 14, (2R)—N-(4-Amino-3,4-dioxo-1-phenylbutan-2-yl)-1-benzyl-6-oxopiperidine-2-carboxamide]",++ (10<Ki(cathepsin B)/Ki(calpain)≦30),50 to 100 nM,++ (10<Ki(cathepsin B)/Ki(calpain)≦30),++ (30<Ki(cathepsin B)/Ki(calpain)≦100),
"C[C@H]1C[C@H](C(=O)NC(Cc2ccccc2)C(=O)C(N)=O)N(Cc2ccccc2)C1=O (stereo partly drawn) [Example 19, (2R,4S)—N-(4-Amino-3,4-dioxo-1-phenylbutan-2-yl)-1-benzyl-4-methyl-5-oxopyrrolidine-2-carboxamide]",++ (10<Ki(cathepsin B)/Ki(calpain)≦30),< 50 nM,++ (10<Ki(cathepsin B)/Ki(calpain)≦30),,

# The next lines start with results.
Sel cat. B [1],Ki [2],Sel cat. L [4],Sel cat. S [5],SMILES,Sel cat. K [3]
+ (5<Ki(cathepsin B)/Ki(calpain)≦10),100 to 600 nM,,++ (30<Ki(cathepsin B)/Ki(calpain)≦100),"O=C(NC1CC1)C(=O)C(Cc1ccccc1)NC(=O)[C@H]1CCC(=O)N1Cc1ccc(C(F)(F)F)cc1 (mixture of isomers) [Example 58, (2R)—N-(4-(Cyclopropylamino)-3,4-dioxo-1-phenylbutan-2-yl)-5-oxo-1-(4-(trifluoromethyl)benzyl)pyrrolidine-2-carboxamide]",+ (5<Ki(cathepsin K)/Ki(calpain)≦10)
+ (5<Ki(cathepsin B)/Ki(calpain)≦10),< 50 nM,,++ (30<Ki(cathepsin B)/Ki(calpain)≦100),"COc1cccc(CN2C(=O)CC[C@@H]2C(=O)NC(Cc2ccccc2)C(=O)C(N)=O)c1 (stereo partly drawn) [Example 6, (2R)—N-(4-Amino-3,4-dioxo-1-phenylbutan-2-yl)-1-(3-methoxybenzyl)-5-oxopyrrolidine-2-carboxamide]",+++ (Ki(cathepsin K)/Ki(calpain) ratio of >30)
++ (10<Ki(cathepsin B)/Ki(calpain)≦30),< 50 nM,,++ (30<Ki(cathepsin B)/Ki(calpain)≦100),"NC(=O)C(=O)C(Cc1ccccc1)NC(=O)[C@H]1CCC(=O)N1Cc1cccc2ccccc12 (stereo partly drawn) [Example 11, (2R)—N-(4-Amino-3,4-dioxo-1-phenylbutan-2-yl)-1-(naphthalen-1-ylmethyl)-5-oxopyrrolidine-2-carboxamide]",+++ (Ki(cathepsin K)/Ki(calpain) ratio of >30)
